Test results published in BigSolDB 2.1.

Cc1c(-c2ccccc2)oc2c(C(=O)OCCN3CCCCC3)cccc2c1=O.Cl
solubility (mole fraction)
Details	278.15 K	283.15 K	288.15 K	293.15 K	298.15 K	303.15 K	308.15 K	313.15 K	318.15 K	323.15 K
in 2-ethoxyethanol	0.000121	0.000162	0.000173	0.000211	0.000252	0.000309	0.000362	0.00044	0.000533	0.000636
in 2-methoxyethanol	0.000431	0.000521	0.000578	0.000675	0.000788	0.000931	0.00107	0.00129	0.00152	0.00182
in 2-propoxyethanol	0.000193	0.000212	0.000255	0.000303	0.000355	0.000413	0.000509	0.000593	0.000704	0.000881
in DMSO	–	–	–	0.000626	0.000775	0.000911	0.00107	0.00129	0.00152	0.0018
in NMP	0.000254	0.000334	0.00039	0.00047	0.000548	0.000646	0.000768	0.000919	0.00109	0.0013
in acetonitrile	2.88e-05	3.71e-05	4.2e-05	4.95e-05	6.13e-05	7.58e-05	8.98e-05	0.000112	0.000141	0.000174
in ethanol	8.81e-05	9.89e-05	0.000117	0.000143	0.000182	0.00022	0.000284	0.000364	0.000452	0.000565
in ethylene glycol	0.000868	0.00115	0.00136	0.00161	0.002	0.00236	0.00284	0.00347	0.00415	0.005
in methanol	0.000529	0.000637	0.000808	0.000961	0.00116	0.0014	0.00169	0.00207	0.00255	0.00317
in n-butanol	3.52e-05	4.51e-05	6.1e-05	9.1e-05	0.000124	0.000171	0.000223	0.000303	0.000374	0.000468
in n-propanol	2.87e-05	3.76e-05	4.58e-05	6.56e-05	0.000107	0.000142	0.000188	0.000252	0.000331	0.000425
in water	0.000219	0.00026	0.000301	0.000361	0.000442	0.000526	0.000629	0.000757	0.00092	0.00114
